Measurements taken from article PMC2174006 (The Journal of Cell Biology, 2002).

Biological target: T1, Rab32 (Homo sapiens, UniProt Q13637)
T1 sequence (Q13637 1-225): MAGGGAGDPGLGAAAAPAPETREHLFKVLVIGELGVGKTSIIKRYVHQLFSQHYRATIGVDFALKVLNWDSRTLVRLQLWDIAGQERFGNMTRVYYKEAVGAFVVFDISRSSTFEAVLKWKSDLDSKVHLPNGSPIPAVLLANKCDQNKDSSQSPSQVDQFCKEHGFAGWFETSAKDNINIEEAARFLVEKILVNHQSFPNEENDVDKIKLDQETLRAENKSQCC
Test: radiolabelled nucleotide dissociation
Type: binding
Conditions: labelled compound ([3H]GDP); pH 7.5, 50 mM Tris-HCl, high magnesium; GST fusion

t 1/2 (dissociation): 7.5 min
Structure (SMILES): Nc1nc2c(ncn2[C@@H]2O[C@H](COP(=O)(O)OP(=O)(O)O)[C@@H](O)[C@H]2O)c(=O)[nH]1 [GDP]
